Experimental data reported in patent publication US9995734B2, “Human T cell line assay for evaluating the immunologic identity of glatiramer acetate preparations” (Mylan Inc., priority 2013, dated 2018).
“And” between values parts separate entries of the source, which are not always exact repeats. Identical values can stand only once.

What was measured:
[1] = test system: Donor 1 GMA Expanded T-Cell Lines (222-AG11, 222-AG12, 222-BA11, 222-BC11); assay: ATP proliferation assay (CellTiter Glo), Donor 1 GMA expanded T-cell lines, incl. reactivity to non-canonical GA peptides; assay type: cell-based, human; conditions: for Proliferation (luminescent ATP assay), Mean: T-cell line 222-AG12, autologous B-LCL
Outline: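 GMA-expanded T-cell lines from Donor 1 restimulated with GMA (0–100 μg/mL), or with non-canonical GA peptides, COP and GMA (0–30 μg/mL; T cells 2×10^5 cells/mL). Mitomycin C-treated autologous PBMC or B-LCL served as APC. Proliferation read by CellTiter-Glo ATP luminescence after 3 days at 37° C.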

[2] = test system: Donor 3 GMA T-Cell Lines; assay: ATP proliferation assay (CellTiter Glo), Donor 3 GMA T-cell lines, incl. reactivity to non-canonical GA peptides; assay type: cell-based, human; conditions: for proliferation response to non-canonical GA peptides: 0, 1, 3, 10, 30 μg/mL; for Non-Canonical Peptide Non-Reactivity: proliferation <2 times no antigen control; for Non-Canonical Peptide Reactivity: at least one proliferation value >=2 times no antigen control

## poly (Glu-Ala-Tyr; 6:3:1) [GAT 631]
[1]; 222-AG12, proliferation <2 times no antigen control
  Non-Canonical Peptide Non-Reactivity: GAT 631
[1]; Donor 1 GMA expanded lines, stimulation with the non-canonical GA peptide
  Nonreactive T-Cell Line: 222-AG12 (Donor 1)
[1]; 1 ug/mL antigen
  Proliferation (luminescent ATP assay), Mean: 3442 RLU
[1]; 10 ug/mL antigen
  Proliferation (luminescent ATP assay), Mean: 3217 RLU
[1]; 30 ug/mL antigen
  Proliferation (luminescent ATP assay), Mean: 3548 RLU
[2]; 165-B5G and 165-E7G, Day 81
  proliferation response to non-canonical GA peptides: responded
[2]; 165-B5G
  Non-Canonical Peptide Non-Reactivity: GAT 631
[2]; 165-C5G
  Non-Canonical Peptide Non-Reactivity: GAT 631
[2]; 165-E7G
  Non-Canonical Peptide Reactivity: GAT 631
[2]; 165-E9G
  Non-Canonical Peptide Non-Reactivity: GAT 631
[2]; 165-F5G
  Non-Canonical Peptide Non-Reactivity: GAT 631
[2]; 165-F10G
  Non-Canonical Peptide Non-Reactivity: GAT 631
[2]; 165-H11G, Day 50
  proliferation response to non-canonical GA peptides: responded
[2]; 165-H11G
  Non-Canonical Peptide Reactivity: GAT 631
[2]; Donor 3 GMA lines, at least a 50% increase in proliferation relative to a control after stimulation with the non-canonical GA peptide
  Reactive T-Cell Line: 165-H11G (Donor 3)
[2]; Donor 3 GMA lines, stimulation with the non-canonical GA peptide
  Nonreactive T-Cell Line: 165-B5G (Donor 3) and 165-C5G (Donor 3) and 165-C8G (Donor 3) and 165-E7G (Donor 3) and 165-E9G (Donor 3) and 165-F5G (Donor 3) and 165-F10G (Donor 3)
[2]; T-cell line 165-05G, 1 μg/mL antigen, Day 50 of culturing, No Antigen Value 2149
  Proliferation (luminescent ATP assay), Mean: 2004 RLU
[2]; T-cell line 165-05G, 3 μg/mL antigen, Day 50 of culturing, No Antigen Value 2149
  Proliferation (luminescent ATP assay), Mean: 2207 RLU
[2]; T-cell line 165-05G, 10 μg/mL antigen, Day 50 of culturing, No Antigen Value 2149
  Proliferation (luminescent ATP assay), Mean: 1928 RLU
[2]; T-cell line 165-05G, 30 μg/mL antigen, Day 50 of culturing, No Antigen Value 2149
  Proliferation (luminescent ATP assay), Mean: 1829 RLU
[2]; T-cell line 165-B5G, 1 μg/mL antigen, Day 81 of culturing, No Antigen Value 2432
  Proliferation (luminescent ATP assay), Mean: 4666 RLU
[2]; T-cell line 165-B5G, 1.25 μg/mL antigen, Day 55 of culturing, No Antigen Value 846
  Proliferation (luminescent ATP assay), Mean: 1133 RLU
[2]; T-cell line 165-B5G, 2.5 μg/mL antigen, Day 55 of culturing, No Antigen Value 846
  Proliferation (luminescent ATP assay), Mean: 1288 RLU
[2]; T-cell line 165-B5G, 3 μg/mL antigen, Day 81 of culturing, No Antigen Value 2432
  Proliferation (luminescent ATP assay), Mean: 5536 RLU
[2]; T-cell line 165-B5G, 5 μg/mL antigen, Day 55 of culturing, No Antigen Value 846
  Proliferation (luminescent ATP assay), Mean: 1511 RLU
[2]; T-cell line 165-B5G, 10 μg/mL antigen, Day 55 of culturing, No Antigen Value 846
  Proliferation (luminescent ATP assay), Mean: 1645 RLU
[2]; T-cell line 165-B5G, 10 μg/mL antigen, Day 81 of culturing, No Antigen Value 2432
  Proliferation (luminescent ATP assay), Mean: 4997 RLU
[2]; T-cell line 165-B5G, 30 μg/mL antigen, Day 81 of culturing, No Antigen Value 2432
  Proliferation (luminescent ATP assay), Mean: 3637 RLU
[2]; T-cell line 165-C5G, 1.25 μg/mL antigen, autologous B-LCL
  Proliferation (luminescent ATP assay), Mean: 435 RLU
[2]; T-cell line 165-C5G, 2.5 μg/mL antigen, autologous B-LCL
  Proliferation (luminescent ATP assay), Mean: 465 RLU
[2]; T-cell line 165-C5G, 5 μg/mL antigen, autologous B-LCL
  Proliferation (luminescent ATP assay), Mean: 504 RLU
[2]; T-cell line 165-C5G, 10 μg/mL antigen, autologous B-LCL
  Proliferation (luminescent ATP assay), Mean: 423 RLU
[2]; T-cell line 165-E7G, 1 μg/mL antigen, Day 81 of culturing, No Antigen Value 2145
  Proliferation (luminescent ATP assay), Mean: 4043 RLU
[2]; T-cell line 165-E7G, 1.25 μg/mL antigen, autologous B-LCL, Day 55
  Proliferation (luminescent ATP assay), Mean: 2629 RLU
[2]; T-cell line 165-E7G, 2.5 μg/mL antigen, autologous B-LCL, Day 55
  Proliferation (luminescent ATP assay), Mean: 2827 RLU
[2]; T-cell line 165-E7G, 3 μg/mL antigen, Day 81 of culturing, No Antigen Value 2145
  Proliferation (luminescent ATP assay), Mean: 6457 RLU
[2]; T-cell line 165-E7G, 5 μg/mL antigen, autologous B-LCL, Day 55
  Proliferation (luminescent ATP assay), Mean: 2950 RLU
[2]; T-cell line 165-E7G, 10 μg/mL antigen, Day 81 of culturing, No Antigen Value 2145
  Proliferation (luminescent ATP assay), Mean: 5499 RLU
[2]; T-cell line 165-E7G, 10 μg/mL antigen, autologous B-LCL, Day 55
  Proliferation (luminescent ATP assay), Mean: 3877 RLU
[2]; T-cell line 165-E7G, 30 μg/mL antigen, Day 81 of culturing, No Antigen Value 2145
  Proliferation (luminescent ATP assay), Mean: 4178 RLU
[2]; T-cell line 165-E9G, 1 μg/mL antigen, Day 50 of culturing, No Antigen Value 1742
  Proliferation (luminescent ATP assay), Mean: 1482 RLU
[2]; T-cell line 165-E9G, 1.25 μg/mL antigen, autologous B-LCL
  Proliferation (luminescent ATP assay), Mean: 122 RLU
[2]; T-cell line 165-E9G, 2.5 μg/mL antigen, autologous B-LCL
  Proliferation (luminescent ATP assay), Mean: 175 RLU
[2]; T-cell line 165-E9G, 3 μg/mL antigen, Day 50 of culturing, No Antigen Value 1742
  Proliferation (luminescent ATP assay), Mean: 1593 RLU
[2]; T-cell line 165-E9G, 5 μg/mL antigen, autologous B-LCL
  Proliferation (luminescent ATP assay), Mean: 207 RLU
[2]; T-cell line 165-E9G, 10 μg/mL antigen, autologous B-LCL
  Proliferation (luminescent ATP assay), Mean: 179 RLU
